Laboratory results reported in the supplement of paper PMC10307832.

Tests used:
Assay in all cases: relative viability (nuclei count vs DMSO), 5 days (fraction); higher = more cells survive
CAL-12T = tested on: CAL-12T
In short: (§1)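 Values are medians from duplicate plates. Each reflects relative viability, defined as the nuclei count of treated wells over that of vehicle wells. Lung cancer cell lines in 1536-well plates were pin-tool dosed one day after seeding with one drug alone or with a fixed anchor-drug dose plus five library-drug doses (not always all listed) in √10 steps, then fixed, stained and imaged at 4× after 5 days.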

ChaGo-K-1 = tested on: ChaGo-K-1
In short: as §1

HCC-366 = tested on: HCC-366
In short: as §1

HCC-78 = tested on: HCC-78
In short: as §1

LC-2-ad = tested on: LC-2-ad
In short: as §1

LOU-NH91 = tested on: LOU-NH91
In short: as §1

LU99A = tested on: LU99A
In short: as §1

NCI-H1395 = tested on: NCI-H1395
In short: as §1

NCI-H1651 = tested on: NCI-H1651
In short: as §1

NCI-H1734 = tested on: NCI-H1734
In short: as §1

NCI-H1755 = tested on: NCI-H1755
In short: as §1

NCI-H1793 = tested on: NCI-H1793
In short: as §1

NCI-H1944 = tested on: NCI-H1944
In short: as §1

NCI-H2087 = tested on: NCI-H2087
In short: as §1

NCI-H2170 = tested on: NCI-H2170
In short: as §1

NCI-H2228 = tested on: NCI-H2228
In short: as §1

NCI-H2405 = tested on: NCI-H2405
In short: as §1

NCI-H3122 = tested on: NCI-H3122
In short: as §1

NCI-H460 = tested on: NCI-H460
In short: as §1

PC-3 [JPC-3] = tested on: PC-3 [JPC-3]
In short: as §1

RERF-LC-KJ = tested on: RERF-LC-KJ
In short: as §1

UMC-11 = tested on: UMC-11
In short: as §1

Compound `NC(=O)Nc1cc(-c2cccc(F)c2)sc1C(=O)N[C@H]1CCCNC1` [AZD7762] + Nc1nc2[nH]cc(CCc3ccc(C(=O)N[C@@H](CCC(=O)O)C(=O)O)cc3)c2c(=O)[nH]1 [Pemetrexed] (partner 0.2 µM) has a relative viability (CAL-12T; first compound 0.01 µM) of 1.16, a relative viability (CAL-12T; first compound 0.03162 µM) of 0.981 and a relative viability (CAL-12T; first compound 0.1 µM) of 1.09. It also gave a relative viability (CAL-12T; first compound 0.3162 µM) of 0.612, a relative viability (CAL-12T; first compound 1 µM) of 0.226 and a relative viability (ChaGo-K-1; first compound 0.01 µM) of 0.26. It also gave a relative viability (ChaGo-K-1; first compound 0.03162 µM) of 0.267, a relative viability (ChaGo-K-1; first compound 0.1 µM) of 0.259 and a relative viability (ChaGo-K-1; first compound 0.3162 µM) of 0.243. For the same compound, the relative viability (ChaGo-K-1; first compound 1 µM) was 0.256, the relative viability (HCC-366; first compound 0.01 µM) was 0.195 and the relative viability (HCC-366; first compound 0.03162 µM) was 0.11. It also gave a relative viability (HCC-366; first compound 0.1 µM) of 0.0981, a relative viability (HCC-366; first compound 0.3162 µM) of 0.0668 and a relative viability (HCC-366; first compound 1 µM) of 0.0716. It also gave a relative viability (HCC-78; first compound 0.01 µM) of 0.927, a relative viability (HCC-78; first compound 0.03162 µM) of 0.903 and a relative viability (HCC-78; first compound 0.1 µM) of 0.895. The relative viability (HCC-78; first compound 0.3162 µM) was 0.895, the relative viability (HCC-78; first compound 1 µM) was 0.889 and the relative viability (LC-2-ad; first compound 0.01 µM) was 0.3. For the same compound, the relative viability (LC-2-ad; first compound 0.03162 µM) was 0.277, the relative viability (LC-2-ad; first compound 0.1 µM) was 0.277 and the relative viability (LC-2-ad; first compound 0.3162 µM) was 0.229. For the same compound, the relative viability (LC-2-ad; first compound 1 µM) was 0.241, the relative viability (LOU-NH91; first compound 0.01 µM) was 0.437 and the relative viability (LOU-NH91; first compound 0.03162 µM) was 0.306. It also gave a relative viability (LOU-NH91; first compound 0.1 µM) of 0.335, a relative viability (LOU-NH91; first compound 0.3162 µM) of 0.359 and a relative viability (LOU-NH91; first compound 1 µM) of 0.349. For the same compound, the relative viability (LU99A; first compound 0.01 µM) was 0.204, the relative viability (LU99A; first compound 0.03162 µM) was 0.165 and the relative viability (LU99A; first compound 0.1 µM) was 0.142. It also gave a relative viability (LU99A; first compound 0.3162 µM) of 0.151, a relative viability (LU99A; first compound 1 µM) of 0.109 and a relative viability (NCI-H1395; first compound 0.01 µM) of 0.847. It also gave a relative viability (NCI-H1395; first compound 0.03162 µM) of 0.768, a relative viability (NCI-H1395; first compound 0.1 µM) of 0.641 and a relative viability (NCI-H1395; first compound 0.3162 µM) of 0.401. It also gave a relative viability (NCI-H1395; first compound 1 µM) of 0.306, a relative viability (NCI-H1651; first compound 0.01 µM) of 0.624 and a relative viability (NCI-H1651; first compound 0.03162 µM) of 0.688. For the same compound, the relative viability (NCI-H1651; first compound 0.1 µM) was 0.558, the relative viability (NCI-H1651; first compound 0.3162 µM) was 0.385 and the relative viability (NCI-H1651; first compound 1 µM) was 0.259. It also gave a relative viability (NCI-H1734; first compound 0.01 µM) of 0.398, a relative viability (NCI-H1734; first compound 0.03162 µM) of 0.353 and a relative viability (NCI-H1734; first compound 0.1 µM) of 0.334. For the same compound, the relative viability (NCI-H1734; first compound 0.3162 µM) was 0.303, the relative viability (NCI-H1734; first compound 1 µM) was 0.28 and the relative viability (NCI-H1755; first compound 0.01 µM) was 0.48. For the same compound, the relative viability (NCI-H1755; first compound 0.03162 µM) was 0.441, the relative viability (NCI-H1755; first compound 0.1 µM) was 0.401 and the relative viability (NCI-H1755; first compound 0.3162 µM) was 0.36. For the same compound, the relative viability (NCI-H1755; first compound 1 µM) was 0.277, the relative viability (NCI-H1793; first compound 0.01 µM) was 0.983 and the relative viability (NCI-H1793; first compound 0.03162 µM) was 0.956. It also gave a relative viability (NCI-H1793; first compound 0.1 µM) of 0.954, a relative viability (NCI-H1793; first compound 0.3162 µM) of 0.811 and a relative viability (NCI-H1793; first compound 1 µM) of 0.562. For the same compound, the relative viability (NCI-H1944; first compound 0.01 µM) was 0.694, the relative viability (NCI-H1944; first compound 0.03162 µM) was 0.601 and the relative viability (NCI-H1944; first compound 0.1 µM) was 0.54. The relative viability (NCI-H1944; first compound 0.3162 µM) was 0.28, the relative viability (NCI-H1944; first compound 1 µM) was 0.188 and the relative viability (NCI-H2087; first compound 0.01 µM) was 0.718. It also gave a relative viability (NCI-H2087; first compound 0.03162 µM) of 0.654, a relative viability (NCI-H2087; first compound 0.1 µM) of 0.714 and a relative viability (NCI-H2087; first compound 0.3162 µM) of 0.66. The relative viability (NCI-H2087; first compound 1 µM) was 0.692, the relative viability (NCI-H2170; first compound 0.01 µM) was 0.272 and the relative viability (NCI-H2170; first compound 0.03162 µM) was 0.264. The relative viability (NCI-H2170; first compound 0.1 µM) was 0.285, the relative viability (NCI-H2170; first compound 0.3162 µM) was 0.236 and the relative viability (NCI-H2170; first compound 1 µM) was 0.21. For the same compound, the relative viability (NCI-H2228; first compound 0.01 µM) was 0.279, the relative viability (NCI-H2228; first compound 0.03162 µM) was 0.328 and the relative viability (NCI-H2228; first compound 0.1 µM) was 0.293. For the same compound, the relative viability (NCI-H2228; first compound 0.3162 µM) was 0.299, the relative viability (NCI-H2228; first compound 1 µM) was 0.2 and the relative viability (NCI-H2405; first compound 0.01 µM) was 0.998. It also gave a relative viability (NCI-H2405; first compound 0.03162 µM) of 1.25, a relative viability (NCI-H2405; first compound 0.1 µM) of 0.927 and a relative viability (NCI-H2405; first compound 0.3162 µM) of 1. It also gave a relative viability (NCI-H2405; first compound 1 µM) of 0.466, a relative viability (NCI-H3122; first compound 0.01 µM) of 0.19 and a relative viability (NCI-H3122; first compound 0.03162 µM) of 0.188. The relative viability (NCI-H3122; first compound 0.1 µM) was 0.167, the relative viability (NCI-H3122; first compound 0.3162 µM) was 0.16 and the relative viability (NCI-H3122; first compound 1 µM) was 0.139. It also gave a relative viability (NCI-H460; first compound 0.01 µM) of 0.0576, a relative viability (NCI-H460; first compound 0.03162 µM) of 0.0605 and a relative viability (NCI-H460; first compound 0.1 µM) of 0.0567. For the same compound, the relative viability (NCI-H460; first compound 0.3162 µM) was 0.0462, the relative viability (NCI-H460; first compound 1 µM) was 0.0366 and the relative viability (PC-3 [JPC-3]; first compound 0.01 µM) was 0.626. It also gave a relative viability (PC-3 [JPC-3]; first compound 0.03162 µM) of 1.08, a relative viability (PC-3 [JPC-3]; first compound 0.1 µM) of 1.12 and a relative viability (PC-3 [JPC-3]; first compound 0.3162 µM) of 0.859. The relative viability (PC-3 [JPC-3]; first compound 1 µM) was 0.688, the relative viability (RERF-LC-KJ; first compound 0.01 µM) was 0.48 and the relative viability (RERF-LC-KJ; first compound 0.03162 µM) was 0.461. The relative viability (RERF-LC-KJ; first compound 0.1 µM) was 0.441, the relative viability (RERF-LC-KJ; first compound 0.3162 µM) was 0.399 and the relative viability (RERF-LC-KJ; first compound 1 µM) was 0.392. The relative viability (UMC-11; first compound 0.01 µM) was 0.833, the relative viability (UMC-11; first compound 0.03162 µM) was 0.797 and the relative viability (UMC-11; first compound 0.1 µM) was 0.782. For the same compound, the relative viability (UMC-11; first compound 0.3162 µM) was 0.495 and the relative viability (UMC-11; first compound 1 µM) was 0.369.
